Earlier results, collected in patent publication US4076804A, “Erythromycin therapy” (Abbott Laboratories, priority 1976, dated 1978).

Settings: general statement, no test described

Question: With `CCOC(=O)CCC(=O)O[C@H]1[C@H](O[C@@H]2[C@@H](C)[C@H](O[C@H]3C[C@@](C)(OC)[C@@H](O)[C@H](C)O3)[C@@H](C)C(=O)O[C@H](CC)[C@@](C)(O)[C@H](O)[C@@H](C)C(=O)[C@H](C)C[C@@]2(C)O)O[C@H](C)C[C@@H]1N(C)C` [EES, erythromycin ethyl succinate] as the compound, how does the toxicity read?
Answer: The toxicity was “very low toxicity”.
